Tests used:
line DC-3F/AD [1] = assay: Flow cytometry: intracellular accumulation of adriamycin by cells of the line DC-3F/AD; type: cell-based, Chinese hamster; settings: ADR 50 μM, 5 hours
Text: Also measured was the effect of the compounds on the intracellular concentration of the cytotoxic agent. In effect, the known compounds for reversing MDR act by increasing the intracellular concentration of cytotoxic agent. This effect is the consequence of inhibiting the action of gP 170 which is responsible for the efflux of the drug.
By measuring that fluorescence, it is thus possible to obtain a relative measurement of the intracellular concentration of ADR.
The cells 500×10^3 per ml were exposed simultaneously to ADR at a fixed concentration (50 μM) and to the tested compounds at various concentrations. After 5 hours' incubation, the intracellular accumulation of ADR was evaluated by FCM. […] The analysis of each of the samples was carried out on a total of 10,000 cells at a rate of 1,000 cells per second.
The results were presented in the form of linear histograms of the intracellular ADR fluorescence.
Expression of the results: for each of the histograms the mean fluorescence per channel (MEAN) was determined by the information system of the apparatus. For all experiments:
a negative control (cells without ADR) fixed the autofluorescence threshold.
a positive control (cells with ADR) determined the MEAN value=MN1.
the "test" tubes (cells with ADR and with compound) were used to determine, for each of the compounds and at each of the concentrations, the MEAN values=MN2.
The results are expressed in the form of variations from the mean fluorescence obtained for each of the "test" tubes (MN2) in relation to the mean fluorescence obtained with the positive control (MNl): VAR-MEAN=MN2-MN1. The parameter expressed is thus the increase in ADR fluorescence in the presence of the tested compounds.

line DC-3F/AD [2] = assay: Cytotoxicity (Microculture Tetrazolium Assay): reversal of resistance to actinomycin D, line DC-3F/AD; type: cell-based, Chinese hamster; settings: 4 days
Text: The pharmacological study of the compounds of the present invention consisted first of all in an evaluation in vitro carried out on resistant cells. The parameter measured is the cytotoxicity of the antitumour drug, quantified in the absence and in the presence of the reversing compound.
The cells are distributed on microplates and exposed to the cytotoxic compounds (actinomycin D for line DC-3F/AD and adriamycin for line KB-Al) at 9 concentrations (2 by 2 series dilutions). The compounds tested for their capacity to reverse MDR are added at the same time as the cytotoxic agent.
The cells are then incubated for 4 days. […] The results are expressed as a reversion factor (RF): PG,29 [formula]

resistant line P/388/VCR = assay: Antitumour activity in vivo: increase in antitumour activity of vincristine on murine leukaemia P 388/VCR; design: species or system murine; female B6D2Fl mice; settings: with vincristine […] i.p., ± sem, no compound: 146 ± 2
Text: This study was completed by an in vivo study, using a murine leukaemia resistant to vincristine (P/388/VCR) and using the compounds in association with vincristine.
The sensitive parent line P 388 (murine leukaemia) and the sub-line resistant to vincristine, P 388/VCR, were supplied by NCI (Frederick, USA). The tumour cells (10^6 cells) were inoculated on day 0 into the intraperitoneal cavity of female B6D2Fl mice (Iffa Credo, France) weighing from 18 to 20 g (groups of 8 to 10 animals).
Every day for 4 days, starting from day 1, the animals received: […]
30 to 60 minutes later, an administration by the i.p. route of 0.25 mg/kg of vincristine (used as a reference antitumour agent).
The tumour activity is expressed as follows: [formula]
The values are mean values obtained in independent experiments (± sem when n is greater than or equal to 3).

[3] = 100 mg/kg i.p. daily for 4 days

Row | SMILES | VAR-MEAN (increase in ADR fluorescence), line DC-3F/AD (line DC-3F/AD [1]; 1.0 μM compound) | VAR-MEAN (increase in ADR fluorescence), line DC-3F/AD (line DC-3F/AD [1]; 5.0 μM compound) | VAR-MEAN (increase in ADR fluorescence), line DC-3F/AD (line DC-3F/AD [1]; 10 μM compound) | VAR-MEAN (increase in ADR fluorescence), line DC-3F/AD (line DC-3F/AD [1]; […] compound) | Reversion factors (cytotoxicity) with the line DC-3F/AD (line DC-3F/AD [2]; 0.5 μM compound) | Reversion factors (cytotoxicity) with the line DC-3F/AD (line DC-3F/AD [2]; 1 μM compound) | Reversion factors (cytotoxicity) with the line DC-3F/AD (line DC-3F/AD [2]; 5 μM compound) | T/C % (resistant line P/388/VCR; 50 mg/kg i.p. daily for 4 days) [%] | T/C % (resistant line P/388/VCR; [3]) [%]
1 | C=CCNc1nc(NCC=C)nc(N2CCC(NCC3c4ccccc4CCCc4ccccc43)CC2)n1 [Example 20, 2,4-diallylamino-6-{4-[(5,6,7,12-tetrahydrodibenzo[a,d]cycloocten-12-yl)methylamino]piperidin-1-yl}-1,3,5-triazine] | 8.2 | 22.3 | 21.6 | 19.7 | 3.4 | 52 | 2951 | 161 | 174
2 | C=CCNc1nc(NCC)nc(N2CCC(NCC3c4ccccc4COc4ccccc43)CC2)n1 (racemic) [Example 29, 2-allylamino-4-ethylamino-6-{4-[((R,S)-6,11-dihydrodibenzo[b,e]oxepin-11-yl)methylamino]piperidin-1-yl}-1,3,5-triazine] | 6.4 | 18.0 | 21.8 | 13.3 | 1.7 | 33.8 | 1327.5 | 171 ± 6 | 185 ± 7
3 | C=CCNc1nc(NCC=C)nc(N2CCN(C3c4ccccc4CCc4ccccc43)CC2)n1 [Example 1, 2,4-Diallylamino-6-{4-(10,11-dihydro-5H-dibenzo[a,d]cyclohepten-5-yl)piperazin-1-yl}-1,3,5-triazine] | 8.4 | 16.0 | 19.3 | 4.9 | – | 27 | 309 | – | –
4 | C=CCNc1nc(N)nc(N2CCC(NCC3c4ccccc4CCc4ccccc43)CC2)n1 [Example 18, 2-allylamino-4-amino-6-{4-[(10,11-dihydro-5H-dibenzo[a,d]cyclohepten-5-yl)methylamino]piperidin-1-yl}-1,3,5-triazine] | 5.5 | 6.7 | 11.0 | 7.4 | 1.2 | 3 | 421 | – | –
5 | C=CCNc1nc(NCC=C)nc(NCC(O)CN2CCN(C3c4ccccc4CCc4ccccc43)CC2)n1 (centres unmarked) [Example 6, 2,4-diallylamino-6-{3-[4-(10,11-dihydro-5H-dibenzo[a,d]cyclohepten-5-yl)piperazin-1-yl]-2-hydroxypropylamino}-1,3,5-triazine] | 11.0 | 24.3 | 27.6 | 14.4 | 0.9 | 1.1 | – | – | –
6 | C=CCNc1nc(NCC=C)nc(NCC(O)CN2CCC(NCC3c4ccccc4CCc4ccccc43)CC2)n1 (centres unmarked) [Example 17, 2,4-diallylamino-6-{3-[4-(10,11-dihydro-5H-dibenzo[a,d]cyclohepten-5-ylmethylamino)piperidin-1-yl]-2-hydroxypropylamino}-1,3,5-triazine] | 9.4 | 10.5 | 12.6 | 11.0 | 0.8 | 0.8 | 1.1 | – | –
7 | C=CCNc1nc(NCC=C)nc(N2CCC(NCC3c4ccccc4-c4ccccc43)CC2)n1 [Example 13, 2,4-diallylamino-6-{4-[(fluoren-9-yl)methylamino]piperidin-1-yl}-1,3,5-triazine] | 8.1 | 19.6 | 23.2 | 12.0 | 2.1 | 7.1 | 170 | – | –
8 | C=CCNc1nc(NCC=C)nc(NCCN2CCC(NCC3c4ccccc4CCc4ccccc43)CC2)n1 [Example 15, 2,4-diallylamino-6-(2-[4-(10,11-dihydro-5H-dibenzo-[a,d]cyclohepten-5-ylmethylamino)piperidin-1-yl]ethylamino}-1,3,5-triazine] | 10.1 | 13.7 | 12.4 | 12.4 | 0.8 | 1 | 120 | – | –
9 | C=CCNc1nc(NCC=C)nc(NCCN2CCC(NC3c4ccccc4CCc4ccccc43)CC2)n1 [Example 12, 2,4-diallylamino-6-{2-[4-(10,11-dihydro-5H-dibenzo[a,d]cyclohepten-5-ylamino)piperidin-1-yl]ethylamino}-1,3,5-triazine] | 5.4 | 10.4 | 18.3 | 10.3 | 0.9 | 0.9 | 64 | – | –
10 | CNc1nc(NC)nc(N2CCC(NCC3c4ccccc4CCc4ccccc43)CC2)n1 [Example 14, 2,4-dimethylamino-6-{4-[(10,11-dihydro-5H-dibenzo[a,d]cyclohepten-5-yl)methylamino]piperidin-1-yl}-1,3,5-triazine] | 12.3 | 29.4 | 30.6 | 14.5 | 1.3 | 7.8 | 187 | – | –
11 | C=CCNc1nc(NCC=C)nc(NCC2CCN(C3c4ccccc4CCc4ccccc43)CC2)n1 [Example 7, 2,4-diallylamino-6-{[1-(10,11-dihydro-5H-dibenzo[a,d]cyclohepten-5-yl)piperidin-4-yl]methylamino}-1,3,5-triazine] | 3.4 | 10.1 | 17.4 | 3.9 | 1.2 | 1.1 | 9.7 | – | –
12 | C=CCNc1nc(NCC=C)nc(NCC(O)CN2CCC(NC3c4ccccc4CCc4ccccc43)CC2)n1 (centres unmarked) [Example 16, 2,4-diallylamino-6-{3-[4-(10,11-dihydro-5H-dibenzo[a,d]cyclohepten-5-ylamino)piperidin-1-yl]-2-hydroxypropylamino}-1,3,5-triazine] | 9.9 | 10.4 | 12.9 | 11.8 | 1 | 0.9 | 1.8 | – | –
